Experimental data from patent publication US11584744B2 (UNIVERSITY OF WASHINGTON, priority 2017, dated 2023).
In brackets after ≈: the same amount, converted by molar mass. Several values for one entry are separate records, joined by “and”; a condition that tells them apart may be missing. Identical values can stand only once. Like-named read-outs stand apart in the source and are kept apart here.

Assays:
T. cruzi = T. cruzi growth inhibition; format: cell-based, Trypanosoma cruzi; settings: read-out: (E) T. cruzi EC50
E. faecalis (ATCC 29212) = experiment: MIC susceptibility testing; format: cell-based; settings: Enterococcus faecalis, ATCC29212; read-out: E. faecalis (ATCC 29212) MIC
MetRS (C. parvum) = MetRS (C. parvum) (Cryptosporidium parvum, UniProt Q5CVN0); experiment: MetRS (C. parvum) enzyme inhibition; format: biochemical; settings: read-out: (C) MetRS (C. parvum) IC50
MetRS (C. parvum), sequence (Q5CVN0 entry or part of it): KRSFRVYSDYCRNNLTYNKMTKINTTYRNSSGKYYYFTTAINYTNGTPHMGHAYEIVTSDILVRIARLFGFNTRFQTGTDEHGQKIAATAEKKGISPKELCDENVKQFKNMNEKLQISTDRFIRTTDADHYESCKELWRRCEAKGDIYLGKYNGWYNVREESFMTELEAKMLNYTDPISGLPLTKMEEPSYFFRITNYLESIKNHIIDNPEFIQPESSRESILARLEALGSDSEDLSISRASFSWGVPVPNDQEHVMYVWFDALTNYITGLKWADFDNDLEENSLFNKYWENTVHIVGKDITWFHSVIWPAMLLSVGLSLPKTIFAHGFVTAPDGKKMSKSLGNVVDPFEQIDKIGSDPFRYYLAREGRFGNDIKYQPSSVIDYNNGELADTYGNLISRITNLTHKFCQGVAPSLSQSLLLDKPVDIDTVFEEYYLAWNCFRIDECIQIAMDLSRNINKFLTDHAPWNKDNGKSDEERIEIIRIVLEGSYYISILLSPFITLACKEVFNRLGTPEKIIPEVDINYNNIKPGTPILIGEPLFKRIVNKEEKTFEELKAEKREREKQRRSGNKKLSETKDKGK

MetRS (T. brucei) = target: T1, MetRS (T. brucei) (Trypanosoma brucei brucei, UniProt Q38C91); experiment: MetRS (T. brucei) enzyme inhibition; format: biochemical
T1 sequence (Q38C91 1-773): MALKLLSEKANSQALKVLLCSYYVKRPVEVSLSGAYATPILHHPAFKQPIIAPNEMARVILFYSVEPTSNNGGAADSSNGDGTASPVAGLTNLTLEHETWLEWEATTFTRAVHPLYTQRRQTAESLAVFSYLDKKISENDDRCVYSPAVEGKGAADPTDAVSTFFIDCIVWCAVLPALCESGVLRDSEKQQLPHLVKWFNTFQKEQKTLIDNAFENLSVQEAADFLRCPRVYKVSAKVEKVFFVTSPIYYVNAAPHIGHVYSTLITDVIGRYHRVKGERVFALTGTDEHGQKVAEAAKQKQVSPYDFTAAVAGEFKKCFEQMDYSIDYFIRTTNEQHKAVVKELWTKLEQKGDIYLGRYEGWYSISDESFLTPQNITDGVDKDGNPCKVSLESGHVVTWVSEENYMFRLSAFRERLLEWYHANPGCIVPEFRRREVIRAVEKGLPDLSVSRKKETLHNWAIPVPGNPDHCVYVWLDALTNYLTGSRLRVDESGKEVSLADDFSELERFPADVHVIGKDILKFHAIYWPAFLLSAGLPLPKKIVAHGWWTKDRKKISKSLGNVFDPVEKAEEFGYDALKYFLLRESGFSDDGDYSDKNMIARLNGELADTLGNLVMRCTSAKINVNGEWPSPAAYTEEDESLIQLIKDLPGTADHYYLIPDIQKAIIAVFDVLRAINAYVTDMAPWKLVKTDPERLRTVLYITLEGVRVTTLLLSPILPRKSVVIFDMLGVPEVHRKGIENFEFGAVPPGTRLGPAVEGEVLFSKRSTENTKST

[1] = Protein binding assays, equilibrium dialysis; format: in vitro ADME, mouse; settings: 1 μM, equilibrium dialysis 22 hours
Protocol: Protein binding assays: Compound binding to mouse plasma proteins was determined using 96-well equilibrium dialyzer plates (SDIS 9610EN, Nest Group, Inc.). Mouse plasma ([…]-SW-F, BioreclamationIVT, Westbury, N.Y.) containing compound (final concentration 1 μM) was added to a donor chamber as a 150 μL volume. The buffer solution (0.2 mM phosphate buffer, 150 μL) was added to the reciprocal acceptor chamber. Each compound was tested in triplicate. To prepare calibration solution for compound quantifications, blank wells were prepared containing only mouse plasma in a donor well and buffer solution in its acceptor well. The equilibrium dialysis was carried out by rocking the plate for 22 hours in 37° C. Once equilibrium was reached, the plasma and buffer solution from both wells were carefully removed for further analysis with liquid chromatography-tandem mass spectrometry. Plasma solution and internal standard were mixed in the presence of 80% acetonitrile. After centrifuging the solution, the supernatant was transferred to an insert. Similarly, the buffer solution from the acceptor side was prepared containing 40% acetonitrile. Calibration standards for donor and acceptor sides were prepared with compound concentrations of 50 nM, 100 nM, 250 nM, 500 nM, and 1 μM. The compound concentrations from each well were calculated from the calibration curves using Microsoft Excel. The percentage of the test compound bound was determined as follows: % Free=(Concentration buffer chamber/Concentration plasma chamber)×100% % Bound=100%−% Free

S. aureus (ATCC 29213) = experiment: MBC determinations (with MIC); format: cell-based; settings: Staphylococcus aureus, ATCC29213, S. aureus (ATCC 29213); for MIC: MBC experiment (Table 5), read-out: MIC; for MBC: concentration killing 99.9% of inoculum, read-out: MBC
Protocol: Maximum DMSO concentrations were 0.5%. […] Each experiment's inoculum was serially diluted and plated on TSA to count competent cells. Cultures were incubated at 37° C. for at least 20 h and plated on TSA for CFU determination.
MIC/MBC: Measurements of minimum bactericidal concentrations (MBCs) were done with the S. aureus strain ATCC 29213 (Table 5).

Row | SMILES | EC50 (T. cruzi; Trypanosoma cruzi) | EC50 (T. cruzi) | MIC (E. faecalis (ATCC 29212)) | IC50 (MetRS (C. parvum)) | IC50 (MetRS (T. brucei)) | % binding to mouse plasma [1] | MIC (S. aureus (ATCC 29213)) | MBC (S. aureus (ATCC 29213))
1 | CCn1c(Cc2ccc(OC)cc2Cl)cn(Cc2nc3nc(F)ccc3[nH]2)c1=O [Compound 2114, 4-[(2-chloro-4-methoxyphenyl)methyl]-3-ethyl-1-({5-fluoro-1H-imidazo[4,5-b]pyridin-2-yl}methyl)-2,3-dihydro-1H-imidazol-2-one] | 25.9 nM | 23.2 nM | 0.625 µg/mL (≈ 1.5 µM) | < 40 nM | < 40 nM |  |  | 
2 | CCn1c(Cc2ccc(Cl)cc2Cl)cn(Cc2nc3nc(F)ccc3[nH]2)c1=O [Compound 2062, 4-[(2,4-dichlorophenyl)methyl]-3-ethyl-1-({5-fluoro-1H-imidazo[4,5-b]pyridin-2-yl}methyl)-2,3-dihydro-1H-imidazol-2-one] | 85.2 nM | 98.9 nM and 90.8 nM | 1.25 µg/mL (≈ 2.97 µM) | < 40 nM | < 40 nM | 99.4% |  | 
3 | COc1cc(Cl)c(-c2cccc3nc(Cc4nc5nc(Cl)ccc5[nH]4)cn23)cc1OC [Compound 2144, 2-({5-chloro-1H-imidazo[4,5-b]pyridin-2-yl}methyl)-5-(2-chloro-4,5-dimethoxyphenyl)imidazo[1,2-a]pyridine] | 13.5 nM | 7.79 nM | 0.0195 µg/mL (≈ 0.0429 µM) | 40.9 nM | < 40 nM | 98.4% | 0.01 µg/mL (≈ 0.022 µM) | 0.313 µg/mL (≈ 0.689 µM)
4 | Fc1ccc2nc(NCCCNCc3cc(Cl)cc(Cl)c3)[nH]c2n1 [Compound 1614, [(3,5-dichlorophenyl)methyl][3-({5-fluoro-3H-imidazo[4,5-b]pyridin-2-yl}amino)propyl]amine] |  |  | 1.25 µg/mL (≈ 3.39 µM) |  |  | 96.5% |  | 
5 | CCn1c(Cc2ccc(OC)cc2Cl)cn(Cc2nc3nc(Cl)ccc3[nH]2)c1=O [Compound 2093, 1-({5-chloro-1H-imidazo[4,5-b]pyridin-2-yl}methyl)-4-[(2-chloro-4-methoxyphenyl)methyl]-3-ethyl-2,3-dihydro-1H-imidazol-2-one] | 8.28 nM | 5.81 nM | 0.156 µg/mL (≈ 0.361 µM) | < 40 nM | < 40 nM | 99.9% | 0.078 µg/mL (≈ 0.18 µM) | 1.25 µg/mL (≈ 2.89 µM)
6 | CC(=O)NC[C@H]1CN(c2ccc(N3CCOCC3)c(F)c2)C(=O)O1 [LNZ, linezolid] |  |  | 2.5 µg/mL (≈ 7.41 µM) |  |  | 39.5% | 2.5 µg/mL (≈ 7.41 µM) | 160 µg/mL (≈ 474 µM)
7 | Fc1ccc2nc(NCCCN[C@@H]3CCNc4c(Cl)cc(Cl)cc43)[nH]c2n1 [Compound 1717, (4R)-6,8-dichloro—N-[3-({5-fluoro-3H-imidazo[4,5-b]pyridin-2-yl}amino)propyl]-1,2,3,4-tetrahydroquinolin-4-amine, reference compound] |  |  | 0.078 µg/mL (≈ 0.191 µM) |  |  | 97.6% | 0.156 µg/mL (≈ 0.381 µM) | 5 µg/mL (≈ 12.2 µM)
